Test results published in patent US12240816B2, “Deuterated compounds and uses thereof” (Aldeyra Therapeutics, Inc., priority 2015, dated 2025).
Where “and” joins values, the source holds several entries; their conditions need not be identical. Identical values can stand only once. Like-named read-outs stand apart in the source and are kept apart here. Marks after values point to notes of the source that are not given here.

Legend:
[1] = biological target: T1, MT3 (ML2) (Mesocricetus auratus, UniProt A0ABM2YAB8); test: MT3 (ML2) (agonist radioligand) binding assay; conditions: MT3 (ML2)(h) (agonist radioligand), 1.0E−05M
T1 sequence (A0ABM2YAB8 1-231): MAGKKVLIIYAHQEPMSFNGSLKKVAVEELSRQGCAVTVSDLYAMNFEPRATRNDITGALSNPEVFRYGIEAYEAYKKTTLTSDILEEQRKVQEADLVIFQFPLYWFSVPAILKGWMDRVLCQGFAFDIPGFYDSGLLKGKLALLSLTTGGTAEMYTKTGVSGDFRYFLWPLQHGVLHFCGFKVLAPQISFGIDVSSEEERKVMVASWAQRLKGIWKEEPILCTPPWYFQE

[2] = biological target: acetylcholinesterase (h) (Homo sapiens, UniProt P22303); test: biochemical
Chain of acetylcholinesterase (h) (P22303 32-614): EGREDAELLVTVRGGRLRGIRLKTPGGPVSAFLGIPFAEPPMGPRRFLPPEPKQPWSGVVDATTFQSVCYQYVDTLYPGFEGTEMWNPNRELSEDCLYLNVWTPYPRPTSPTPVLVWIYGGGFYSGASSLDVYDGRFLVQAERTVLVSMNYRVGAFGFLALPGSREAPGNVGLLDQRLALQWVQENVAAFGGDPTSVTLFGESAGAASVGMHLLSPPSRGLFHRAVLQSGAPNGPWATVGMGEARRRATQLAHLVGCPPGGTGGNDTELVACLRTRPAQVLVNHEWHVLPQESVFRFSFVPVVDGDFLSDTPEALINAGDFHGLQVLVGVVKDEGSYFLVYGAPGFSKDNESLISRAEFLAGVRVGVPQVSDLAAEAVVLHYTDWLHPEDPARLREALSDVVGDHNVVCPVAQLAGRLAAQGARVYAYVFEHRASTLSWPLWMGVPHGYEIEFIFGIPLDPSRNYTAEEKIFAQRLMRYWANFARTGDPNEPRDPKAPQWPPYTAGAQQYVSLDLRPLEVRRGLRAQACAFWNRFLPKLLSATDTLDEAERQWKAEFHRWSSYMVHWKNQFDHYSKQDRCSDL

[3] = system: rat hippocampal cultures; test: cells; type: cell-based
[4] = system: rat hippocampal cultures; test: Propidium iodide cell death assay, protection from hydrogen peroxide toxicity; type: cell-based
[5] = system: rat hepatocytes
[6] = CFDA, Captisol formulation, 10 μM hydrogen peroxide, 5 h
[7] = CFDA, DMSO formulation, 10 μM hydrogen peroxide, 5 h
[8] = NS2 (CoreRx micro-milled, Captisol) 0.1 μM + 10 μM hydrogen peroxide, 5 h
[9] = NS2 (CoreRx micro-milled, Captisol) 1 μM + 10 μM hydrogen peroxide, 5 h
[10] = NS2 (CoreRx micro-milled, Captisol) 10 μM + 10 μM hydrogen peroxide, 5 h
[11] = NS2 (CoreRx micro-milled, Captisol) 100 μM + 10 μM hydrogen peroxide, 5 h
[12] = NS2 (CoreRx micro-milled, Captisol) 1 mM + 10 μM hydrogen peroxide, 5 h
[13] = NS2 (CoreRx micro-milled, DMSO) 0.1 μM + 10 μM hydrogen peroxide, 5 h
[14] = NS2 (CoreRx micro-milled, DMSO) 1 μM + 10 μM hydrogen peroxide, 5 h
[15] = NS2 (CoreRx micro-milled, DMSO) 10 μM + 10 μM hydrogen peroxide, 5 h
[16] = NS2 (CoreRx micro-milled, DMSO) 100 μM + 10 μM hydrogen peroxide, 5 h
[17] = NS2 (CoreRx micro-milled, DMSO) 1 mM + 10 μM hydrogen peroxide, 5 h
[18] = NS2 (J-Star non-milled, Captisol) 0.1 μM + 10 μM hydrogen peroxide, 5 h
[19] = NS2 (J-Star non-milled, Captisol) 1 μM + 10 μM hydrogen peroxide, 5 h
[20] = NS2 (J-Star non-milled, Captisol) 10 μM + 10 μM hydrogen peroxide, 5 h
[21] = NS2 (J-Star non-milled, Captisol) 100 μM + 10 μM hydrogen peroxide, 5 h
[22] = NS2 (J-Star non-milled, Captisol) 1 mM + 10 μM hydrogen peroxide, 5 h
[23] = NS2 (J-Star non-milled, DMSO) 0.1 μM + 10 μM hydrogen peroxide, 5 h
[24] = NS2 (J-Star non-milled, DMSO) 1 μM + 10 μM hydrogen peroxide, 5 h
[25] = NS2 (J-Star non-milled, DMSO) 10 μM + 10 μM hydrogen peroxide, 5 h
[26] = NS2 (J-Star non-milled, DMSO) 100 μM + 10 μM hydrogen peroxide, 5 h
[27] = NS2 (J-Star non-milled, DMSO) 1 mM + 10 μM hydrogen peroxide, 5 h
[28] = PI, Captisol formulation, 10 μM hydrogen peroxide, 5 h
[29] = PI, DMSO formulation, 10 μM hydrogen peroxide, 5 h

[2H]C([2H])([2H])C(O)(c1nc2ccc(Cl)cc2cc1N)C([2H])([2H])[2H] [Compound I-1]
inhibition at 10 µM ([1]; read-out: % Inhibition of Control Specific Binding 1st): 69% | inhibition at 10 µM ([1]; read-out: % Inhibition of Control Specific Binding 2nd): 73.3% | inhibition at 10 µM ([1]; read-out: % Inhibition of Control Specific Binding Mean): 71.1% | inhibition at 10 µM ([2]; read-out: % inhibition of Control Values 1st): 45.8% | inhibition at 10 µM ([2]; read-out: % inhibition of Control Values 2nd): 60.1% | inhibition at 10 µM ([2]; read-out: % inhibition of Control Values Mean): 52.9%

CC(C)(O)c1nc2ccc(Cl)cc2cc1N [NS2, 2-(3-amino-6-chloroquinolin-2-yl)propan-2-ol]
Full Efficacy Concentration [3, 6]: 100 µM | No effect Concentration [3, 6]: 1 µM | EC50 ([3]; CFDA, Captisol formulation, 10 μM hydrogen peroxide, 5 h, listed as CoreRx NS2 (milled), read-out: EC50 ± SE): 7000 ± 4000 nM | EC50 ([3]; CFDA, Captisol formulation, 10 μM hydrogen peroxide, 5 h, listed as NS2 (J-Star), read-out: EC50 ± SE): 9100 nM | Full Efficacy Concentration [3, 7]: 100 µM | No effect Concentration [3, 7]: 1 µM | EC50 ([3]; CFDA, DMSO formulation, 10 μM hydrogen peroxide, 5 h, values with * are estimates, listed as NS2 (CoreRx), read-out: EC50 ± SE): 9800 nM | EC50 ([3]; CFDA, DMSO formulation, 10 μM hydrogen peroxide, 5 h, values with * are estimates, listed as NS2 (J-Star), read-out: EC50 ± SE): 2600 nM | Full protection concentration ([3]; CFDA, both NS2 formulations and both batches): 100 µM | no effect concentration ([3]; CFDA, both formulations and batches): 1 µM | % of Control (CFDA) [3, 8]: 58 ± 4% | CFDA signal, Mean [3, 8]: 26931 | % of Control (CFDA) [3, 9]: 64 ± 6% | CFDA signal, Mean [3, 9]: 29693 | % of Control (CFDA) [3, 10]: 80 ± 8% | CFDA signal, Mean [3, 10]: 37577* | % of Control (CFDA) [3, 11]: 100 ± 6% | CFDA signal, Mean [3, 11]: 46508* | % of Control (CFDA) [3, 12]: 92 ± 07% | CFDA signal, Mean [3, 12]: 42889* | % of Control (CFDA) [3, 13]: 61 ± 2% | CFDA signal, Mean [3, 13]: 26314 | % of Control (CFDA) [3, 14]: 62 ± 6% | CFDA signal, Mean [3, 14]: 26633 | % of Control (CFDA) [3, 15]: 79 ± 3% | CFDA signal, Mean [3, 15]: 34180* | CFDA signal, replicate wells [3, 15]: 32661 (3×) and 34496 and 38422 | % of Control (CFDA) [3, 16]: 101 ± 6% | CFDA signal, Mean [3, 16]: 43328* | % of Control (CFDA) [3, 17]: 90 ± 3% | CFDA signal, Mean [3, 17]: 38622* | % of Control (CFDA) [3, 18]: 60 ± 4% | CFDA signal, Mean [3, 18]: 24142 | % of Control (CFDA) [3, 19]: 61 ± 3% | CFDA signal, Mean [3, 19]: 24338 | % of Control (CFDA) [3, 20]: 79± 6% | CFDA signal, Mean [3, 20]: 31811* | % of Control (CFDA) [3, 21]: 93 ± 9% | CFDA signal, Mean [3, 21]: 37544* | % of Control (CFDA) [3, 22]: 98 ± 3% | CFDA signal, Mean [3, 22]: 39516* | % of Control (CFDA) [3, 23]: 60 ± 4% | CFDA signal, Mean [3, 23]: 24819 | % of Control (CFDA) [3, 24]: 66 ± 6% | CFDA signal, Mean [3, 24]: 27524 | % of Control (CFDA) [3, 25]: 85 ± 7% | CFDA signal, Mean [3, 25]: 35341* | % of Control (CFDA) [3, 26]: 96 ± 10% | CFDA signal, Mean [3, 26]: 39844* | % of Control (CFDA) [3, 27]: 88 ± 10% | CFDA signal, Mean [3, 27]: 36632* | EC50 ([3]; Rattus norvegicus, 5 h, CFDA, Captisol formulation, 10 μM hydrogen peroxide, 5 h, read-out: EC50 ± SE): 6800 nM | EC50 ([3]; Rattus norvegicus, CFDA, across formulations and batches, read-out: EC50 range): 3000 to 10000 nM | % of Control (PI) [4, 8]: 167 ± 10% | PI signal, Mean [4, 8]: 261 | PI signal, replicate wells [4, 8]: 246 (4×) and 323 | % of Control (PI) [4, 9]: 171 ± 9% | PI signal, Mean [4, 9]: 266 | PI signal, replicate wells [4, 9]: 246 (2×) and 267 and 319 and 254 | % of Control (PI) [4, 10]: 108 ± 20% | PI signal, Mean [4, 10]: 169* | PI signal, replicate wells [4, 10]: 180 (3×) and 57 and 246 | % of Control (PI) [4, 11]: 115 ± 13% | PI signal, Mean [4, 11]: 180* | PI signal, replicate wells [4, 11]: 246 and 137 and 144 and 180 and 192 | % of Control (PI) [4, 12]: 130 ± 8% | PI signal, Mean [4, 12]: 203* | PI signal, replicate wells [4, 12]: 188 and 217 and 246 and 184 and 180 | % of Control (PI) [4, 13]: 189 ± 9% | PI signal, Mean [4, 13]: 267 | PI signal, replicate wells [4, 13]: 315 and 259 and 246 and 263 and 254 | % of Control (PI) [4, 14]: 190 ± 9% | PI signal, Mean [4, 14]: 268 | PI signal, replicate wells [4, 14]: 254 (3×) and 315 and 263 | % of Control (PI) [4, 15]: 115 ± 11% | PI signal, Mean [4, 15]: 163* | PI signal, replicate wells [4, 15]: 117 and 137 and 180 and 188 and 192 | % of Control (PI) [4, 16]: 113 ± 11% | PI signal, Mean [4, 16]: 159* | PI signal, replicate wells [4, 16]: 192 and 117 and 125 and 180 (2×) | % of Control (PI) [4, 17]: 138 ± 6% | PI signal, Mean [4, 17]: 195* | PI signal, replicate wells [4, 17]: 188 and 180 (2×) and 204 and 221 | % of Control (PI) [4, 18]: 165 ± 22% | PI signal, Mean [4, 18]: 232 | PI signal, replicate wells [4, 18]: 350 and 180 (2×) and 204 and 246 | % of Control (PI) [4, 19]: 172 ± 24% | PI signal, Mean [4, 19]: 242 | PI signal, replicate wells [4, 19]: 180 and 192 and 184 and 315 and 337 | % of Control (PI) [4, 20]: 113 ± 12% | PI signal, Mean [4, 20]: 160* | PI signal, replicate wells [4, 20]: 180 and 188 and 117 (2×) and 196 | % of Control (PI) [4, 21]: 99 ± 7% | PI signal, Mean [4, 21]: 139* | PI signal, replicate wells [4, 21]: 180 and 133 and 129 (2×) and 125 | % of Control (PI) [4, 22]: 120 ± 6% | PI signal, Mean [4, 22]: 169* | PI signal, replicate wells [4, 22]: 180 (3×) and 133 and 172 | % of Control (PI) [4, 23]: 175 ± 17% | PI signal, Mean [4, 23]: 275 | PI signal, replicate wells [4, 23]: 350 and 259 and 246 and 315 and 204 | % of Control (PI) [4, 24]: 143 ± 9% | PI signal, Mean [4, 24]: 225 | PI signal, replicate wells [4, 24]: 188 and 250 and 246 (2×) and 196 | % of Control (PI) [4, 25]: 115 ± 2% | PI signal, Mean [4, 25]: 181* | PI signal, replicate wells [4, 25]: 180 (3×) and 192 and 172 | % of Control (PI) [4, 26]: 111 ± 18% | PI signal, Mean [4, 26]: 175* | PI signal, replicate wells [4, 26]: 246 (2×) and 133 and 125 (2×) | % of Control (PI) [4, 27]: 113 ± 15% | PI signal, Mean [4, 27]: 177* | PI signal, replicate wells [4, 27]: 117 and 250 and 180 and 204 and 133 | Full Efficacy Concentration [4, 28]: 10 µM | No effect Concentration [4, 28]: 1 µM | EC50 ([4]; PI, Captisol formulation, 10 μM hydrogen peroxide, 5 h, values with * are estimates, listed as NS2 (J-Star), read-out: EC50 ± SE): 2800 nM | Full Efficacy Concentration [4, 29]: 10 µM | No effect Concentration [4, 29]: 1 µM | EC50 ([4]; PI, DMSO formulation, 10 μM hydrogen peroxide, 5 h, values with * are estimates, listed as NS2 (J-Star), read-out: EC50 ± SE): 1100 nM | Full protection concentration ([4]; PI, both NS2 formulations and both batches): 10 µM | no effect concentration ([4]; PI, both formulations and batches): 1 µM | EC50 ([4]; Rattus norvegicus, 5 h, PI, DMSO formulation, 10 μM hydrogen peroxide, 5 h, values with * are estimates, read-out: EC50 ± SE): 1300 nM | EC50 ([4]; Rattus norvegicus, PI, across formulations and batches, read-out: EC50 range): 1100 to 2800 nM | EC50 ([4]; Rattus norvegicus, PI, best available estimate, read-out: EC50, mean value for all PI data): 2000 ± 1000 nM | metabolite profile ([5]; NS2, 120 min, rat hepatocytes): metabolized to M1, M7, and M8, with some unchanged NS2 remaining | Peak Areas Rat ([5]; rat, 120 min, 3 μM): 3.14E+08
